How the values were obtained:
MCF-7 = test: MTT cell viability assay, MCF-7; assay type: cell-based; settings: Homo sapiens, MCF7, 24 h incubation, mean ± standard error
Description: (§1) According to previous reports regarding the cytotoxic features of a numerous array of benzochromene scaffolds, compounds 4a − z have been elected to explore their cytotoxic ability against three tumour cell lines, including HCT-116 (colon cancer), MCF-7 (breast cancer), and HepG-2 (hepatocellular cancer), and employing the 3–(4,5-dimethylthiazol-2-yl)-2,5-diphenyl tetrazolium bromide (MTT) colorimetric assay as described in literature. Judges choice of such cell lines has been stimulated by the acknowledged antitumor performance of a substantial number of 1H-benzo[f]chromene and 4H-benzo[h]chromene molecules towards the asserted cell lines. […] Moreover, benzochromene derivatives with highly cytotoxic behaviour, 4a − d, 4g, 4i, 4k, 4n, 4q, 4 u, and 4w, are subjected to further inspection against ADR-resistant human breast cancer cells (MCF-7/ADR) and the two normal cell lines, HFL-1 and human diploid fibroblasts (WI-38). […] Also, the results are illustrated in Table 4.
(§2) The tumour cell lines MCF-7, HepG-2, and […] were obtained from the American Type Culture Collection (ATCC, Rockville, MD). The cells were grown on RPMI-1640 medium supplemented with 10% inactivated foetal calf serum and 50 µg/mL gentamycin. The cells were maintained at 37 °C in a humidified atmosphere with 5% CO2 and were subculture two to three times a week.
(§3) The cytotoxic activity was appraised, using the 3–(4,5-dimethylthiazol-2-yl)-2,5-diphenyl-tetrazolium bromide (MTT) colorimetric assay, as reported previously[57] and ELISA assay for MCF-7/ADR[75].

HepG-2 = test: MTT cell viability assay, HepG-2; assay type: cell-based; settings: Homo sapiens, HepG2, 24 h incubation, mean ± standard error
Description: as §1, §2, §3

HCT-116 = test: MTT cell viability assay, HCT-116; assay type: cell-based; settings: Homo sapiens, 24 h incubation, mean ± standard error
Description: as §1, §3

HFL-1 = test: Cytotoxicity against normal cell line HFL-1; assay type: cell-based; settings: Homo sapiens, HFL1, 24 h, mean ± standard error
Description: as §1, §3

MCF-7/ADR = test: Cytotoxicity against ADR-resistant breast cancer cells; assay type: cell-based, human; settings: 24 h exposure, mean ± standard error
Description: as §1, §3

WI-38 = test: Cytotoxicity against normal cell line WI-38; assay type: cell-based; settings: Homo sapiens, 24 h, mean ± standard error
Description: as §1, §3

[1] = Homo sapiens, NCI/ADR-RES, 24 h

| IC50 (MCF-7) | IC50 (HCT-116) | melting point | Structure (SMILES) | IC50 (HepG-2) | IC50 (HFL-1) | IC50 (MCF-7/ADR; [1]) | IC50 (WI-38) | IC50 (MCF-7/ADR) |
| --- | --- | --- | --- | --- | --- | --- | --- | --- |
| 100 ± 1.3 µM | 96.5 ± 2 µM | 292 to 294 °C | COc1ccc2ccc3c(c2c1)C(c1c(F)cccc1Cl)C(C#N)=C(N)O3 (centres unmarked) [4t, 3-Amino-1–(2-chloro-6-fulorophenyl)-9-methoxy-1H-benzo[f]chromene-2-carbonitrile] | 48.1 ± 1.3 µM |  |  |  |  |
| 41.5 ± 0.1 µM | 18.9 ± 0.2 µM | 321 to 322 °C | COc1ccc2ccc3c(c2c1)C(c1c(Cl)cccc1Cl)C(C#N)=C(N)O3 (centres unmarked) [4p, 3-Amino-1–(2,6-dichlorophenyl)-9-methoxy-1H-benzo[f]chromene-2-carbonitrile] | 25.9 ± 0.3 µM |  |  |  |  |
| 3.8 ± 0.3 µM | 8.3 ± 0.2 µM | 268 to 269 °C | COc1ccc2ccc3c(c2c1)C(c1cc(Cl)ccc1Cl)C(C#N)=C(N)O3 (centres unmarked) [4o, 3-Amino-1–(2,5-dichlorophenyl)-9-methoxy-1H-benzo[f]chromene-2-carbonitrile] | 46.6 ± 0.1 µM |  |  |  |  |
| 13.6 ± 0.2 µM | 15 ± 2.6 µM | 268 to 270 °C | COc1ccc2ccc3c(c2c1)C(c1cc(Br)cc(Br)c1)C(C#N)=C(N)O3 (centres unmarked) [4s, 3-Amino-1–(3,5-dibromophenyl)-9-methoxy-1H-benzo[f]chromene-2-carbonitrile] | 13.4 ± 1.1 µM |  |  |  |  |
| 4.9 ± 0.5 µM | 5.3 ± 0.4 µM | 260 to 262 °C | COc1ccc2ccc3c(c2c1)C(c1cc(Br)ccc1Br)C(C#N)=C(N)O3 (centres unmarked) [4r, 3-Amino-1–(2,5-dibromophenyl)-9-methoxy-1H-benzo[f]chromene-2-carbonitrile] | 6.8 ± 0.5 µM | 38.1 ± 0.2 µM |  | 33.9 ± 0.4 µM |  |
| 0.2 µM | 14.7 ± 2.3 µM | 237 to 239 °C | COc1ccc2ccc3c(c2c1)C(c1ccc(C(F)(F)F)cc1F)C(C#N)=C(N)O3 (centres unmarked) [4u] | 10.6 ± 0.9 µM | 55.3 ± 0.1 µM | 19.7 ± 0.8 µM | 60.3 ± 0.1 µM |  |
| 100 ± 0.2 µM | 49.9 ± 0.5 µM | 218 to 220 °C | COc1ccc(C2C(C#N)=C(N)Oc3ccc4ccc(OC)cc4c32)c(OC)c1 (centres unmarked) [4v, 3-Amino-1–(2,4-dimethoxyphenyl)-9-methoxy-1H-benzo[f]chromene-2-carbonitrile] | 93.2 ± 0.2 µM |  |  |  |  |
| 26.1 ± 0.1 µM | 15.4 ± 0.1 µM | 260 to 261 °C | COc1ccc2ccc3c(c2c1)C(c1cc(OC)c(OC)c(OC)c1)C(C#N)=C(N)O3 (centres unmarked) [4y, 3-Amino-1–(3,4,5-trimethoxyphenyl)-9-methoxy-1H-benzo[f]chromene-2-carbonitrile] | 8.8 ± 0.2 µM | 34.1 ± 0.2 µM |  | 29.9 ± 0.4 µM |  |
| 5.8 ± 0.04 µM | 6.8 ± 0.1 µM | 263 to 264 °C | COc1ccc2ccc3c(c2c1)C(c1cc(Br)cc(Br)c1OC)C(C#N)=C(N)O3 (centres unmarked) [4z, 3-Amino-1–(3,5-dibromo-2-methoxyphenyl)-9-methoxy-1H-benzo[f]chromene-2-carbonitrile] | 3.5 ± 0.2 µM | 33.3 ± 0.1 µM |  | 39.6 ± 0.4 µM |  |
| 7.5 ± 0.03 µM | 3.2 ± 0.1 µM |  | CC[C@]1(O)C[C@@H]2CN(CCc3c([nH]c4ccccc34)[C@@](C(=O)OC)(c3cc4c(cc3OC)N(C)[C@H]3[C@@](O)(C(=O)OC)[C@H](OC(C)=O)[C@]5(CC)C=CCN6CC[C@]43[C@@H]65)C2)C1 [Vinblastine, reference compound] | 5.7 ± 0.1 µM |  |  |  |  |

More lines, now with the values behind:

| Structure (SMILES) | IC50 (MCF-7) | IC50 (HCT-116) | melting point | IC50 (HepG-2) | IC50 (HFL-1) | IC50 (MCF-7/ADR; [1]) | IC50 (WI-38) | IC50 (MCF-7/ADR) |
| --- | --- | --- | --- | --- | --- | --- | --- | --- |
| COc1ccc2ccc3c(c2c1)C(c1ccc(C)cc1)C(C#N)=C(N)O3 (centres unmarked) [4i, 3-Amino-1–(4-methylphenyl)-9-methoxy-1H-benzo[f]chromene-2-carbonitrile] | 7 ± 0.1 µM | 2.9 ± 0.1 µM | 245 to 246 °C | 8.8 ± 0.2 µM | 71.6 ± 0.3 µM | 42.8 ± 2.4 µM | 61.7 ± 0.1 µM |  |
| COc1ccc2ccc3c(c2c1)C(c1cccc(Br)c1)C(C#N)=C(N)O3 (centres unmarked) [4f, 3-Amino-1–(3-bromophenyl)-9-methoxy-1H-benzo[f]chromene-2-carbonitrile] | 69.2 ± 0.3 µM | 11.5 ± 1.1 µM | 263 to 265 °C | 63.6 ± 3.2 µM |  |  |  |  |
| COc1ccc2ccc3c(c2c1)C(c1ccc(C(F)(F)F)cc1)C(C#N)=C(N)O3 (centres unmarked) [4j, 3-Amino-1–(4-trifluoromethylphenyl)-9-methoxy-1H-benzo[f]chromene-2-carbonitrile] | 26.8 ± 1.8 µM | 20.2 ± 1.1 µM | 212 to 214 °C | 5.3 ± 0.1 µM |  |  |  |  |
| COc1ccc2ccc3c(c2c1)C(c1ccc(I)cc1)C(C#N)=C(N)O3 (centres unmarked) [4h, 3-Amino-1–(4-iodophenyl)-9-methoxy-1H-benzo[f]chromene-2-carbonitrile] | 48.4 ± 0.1 µM | 27.7 ± 0.3 µM | 227 to 228 °C | 39.2 ± 0.2 µM |  |  |  |  |
| COc1ccc2ccc3c(c2c1)C(c1ccc(Cl)cc1Cl)C(C#N)=C(N)O3 (centres unmarked) [4n, 3-Amino-1–(2,4-dichlorophenyl)-9-methoxy-1H-benzo[f]chromene-2-carbonitrile] | 1.8 ± 0.1 µM | 1.7 ± 0.2 µM | 261 to 262 °C | 7.3 ± 0.2 µM | 71.7 ± 0.1 µM | 10.9 to 15.5 µM | 61.9 ± 0.3 µM | 15.5 ± 0.2 µM |
| COc1ccc2ccc3c(c2c1)C(c1ccccc1Br)C(C#N)=C(N)O3 (centres unmarked) [4e, 3-Amino-1–(2-bromophenyl)-9-methoxy-1H-benzo[f]chromene-2-carbonitrile] | 8.3 ± 0.6 µM | 5.9 ± 0.4 µM | 273 to 275 °C | 4.9 ± 0.2 µM | 49.5 ± 1.1 µM |  | 59.1 ± 1.1 µM |  |
| COc1ccc2ccc3c(c2c1)C(c1ccc(Br)cc1)C(C#N)=C(N)O3 (centres unmarked) [4g, 3-Amino-1–(4-bromophenyl)-9-methoxy-1H-benzo[f]chromene-2-carbonitrile] | 5.6 ± 0.1 µM | 2.2 ± 0.1 µM | 252 to 253 °C | 2 ± 0.1 µM | 65.3 ± 0.1 µM | 19.6 ± 1 µM | 69 ± 1.1 µM |  |
| COc1ccc2ccc3c(c2c1)C(c1ccc(OC)c(OC)c1OC)C(C#N)=C(N)O3 (centres unmarked) [4x, 3-Amino-1–(2,3,4-trimethoxyphenyl)-9-methoxy-1H-benzo[f]chromene-2-carbonitrile] | 96.1 ± 0.6 µM | 36.6 ± 0.1 µM | 239 to 240 °C | 59.7 ± 0.3 µM |  |  |  |  |
| COc1ccc2ccc3c(c2c1)C(c1cccc(Cl)c1Cl)C(C#N)=C(N)O3 (centres unmarked) [4m, 3-Amino-1–(2,3-dichlorophenyl)-9-methoxy-1H-benzo[f]chromene-2-carbonitrile] | 9.1 ± 0.2 µM | 42 ± 0.2 µM | 310 to 311 °C | 11.8 ± 0.2 µM |  |  |  |  |
| COc1ccc2ccc3c(c2c1)C(c1ccc(F)cc1)C(C#N)=C(N)O3 (centres unmarked) [4a, 3-Amino-1–(4-fluorophenyl)-9-methoxy-1H-benzo[f]chromene-2-carbonitrile] | 16.5 ± 0.1 µM | 6.4 ± 0.1 µM | 267 to 268 °C | 11.3 ± 0.1 µM | 45.1 ± 0.2 µM | 24.4 ± 1.2 µM | 56.7 ± 1.1 µM |  |
| COc1ccc2ccc3c(c2c1)C(c1c(F)cccc1F)C(C#N)=C(N)O3 (centres unmarked) [4l, 3-Amino-1–(2,6-difluorophenyl)-9-methoxy-1H-benzo[f]chromene-2-carbonitrile] | 15.4 ± 0.2 µM | 77.7 ± 0.3 µM | 305 to 306 °C | 28.5 ± 0.4 µM |  |  |  |  |

From PMC9869995, “Discovery of benzochromene derivatives first example with dual cytotoxic activity against the resistant cancer cell MCF-7/ADR and inhibitory effect of the P-glycoprotein expression levels” (Journal of Enzyme Inhibition and Medicinal Chemistry, 2023)
